Measured values as given in patent US9718825B2, “N-(4-(azaindazol-6-yl)-phenyl)-sulfonamides and their use as pharmaceuticals” (priority 2013, dated 2017).
Like-named read-outs stand apart in the source and are kept apart here.

What was measured:
[1] = biological target: recombinant human SGK-1 enzyme (Homo sapiens, UniProt O00141); experiment: Enzymatic activity assay: SGK-1 substrate peptide phosphorylation (Caliper lab-chip mobility shift); format: biochemical
[2] = test system: SGK-1 dependent phosphorylation of GSK3beta in U2OS cells; experiment: SGK-1 dependent phosphorylation of GSK3beta in U2OS cells overexpressing recombinant SGK-1 and GSK3beta; format: cell-based, human; conditions: U2OS cells, 6 h incubation, ratio of phosphorylated GSK3beta to total GSK3beta, read-out: IC50 values for inhibition of SGK-1 dependent phosphorylation of GSK3beta in U2OS cells
[3] = peptide substrate 1 μM, ATP 10 μM, 60 min at 37° C., read-out: IC50 values for inhibition of SGK-1 enzymatic activity

Chain of recombinant human SGK-1 enzyme (O00141 whole entry, looked up): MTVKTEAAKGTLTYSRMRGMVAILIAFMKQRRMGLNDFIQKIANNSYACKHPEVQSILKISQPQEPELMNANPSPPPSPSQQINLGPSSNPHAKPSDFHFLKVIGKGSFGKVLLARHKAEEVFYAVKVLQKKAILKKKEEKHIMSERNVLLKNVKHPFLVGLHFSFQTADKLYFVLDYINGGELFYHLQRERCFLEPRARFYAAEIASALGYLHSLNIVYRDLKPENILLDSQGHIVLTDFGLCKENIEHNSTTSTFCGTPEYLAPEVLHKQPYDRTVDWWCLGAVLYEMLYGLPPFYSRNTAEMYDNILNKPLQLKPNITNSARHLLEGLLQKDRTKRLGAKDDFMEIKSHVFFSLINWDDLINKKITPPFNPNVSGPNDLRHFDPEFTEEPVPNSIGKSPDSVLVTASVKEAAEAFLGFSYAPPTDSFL

| Structure (SMILES) | IC50 [1, 3] [nM] | IC50 [2] [nM] | IC50 ([1]; read-out: IC50 values for inhibition of SGK-1 enzymatic activity, peptide substrate 1 μM, ATP 10 μM, 60 min at 37° C.) [nM] | IC50 ([2]; Homo sapiens) [nM] |
| --- | --- | --- | --- | --- |
| Cc1n[nH]c2nc(-c3ccc(NS(=O)(=O)c4cc(Cl)ccc4Cl)cc3)nc(OC3CCN(CCF)CC3)c12 [Example 342] | 6 | 280 | – | – |
| Cc1n[nH]c2nc(-c3ccc(NS(=O)(=O)c4cc(Cl)ccc4F)cc3)nc(OC3CCCNC3)c12 (centres unmarked) [Example 339] | 1.3 | 45 | – | – |
| COCCc1nc(-c2ccc(NS(=O)(=O)c3cc(Cl)sc3Cl)cc2)nc2[nH]nc(N)c12 [Example 509] | 310 | 2500 | – | – |
| Cc1ccc(C#N)c(S(=O)(=O)Nc2ccc(-c3nc(OC4CCNCC4F)c4c(C)n[nH]c4n3)cc2)c1 (centres unmarked) [Example 300] | 1.1 | 92 | – | – |
| Cc1n[nH]c2nc(-c3ccc(NS(=O)(=O)c4cc(F)ccc4F)cc3)nc(OCC3CNCCO3)c12 (centres unmarked) [Example 292] | 14 | 930 | – | – |
| COCCc1nc(-c2ccc(NS(=O)(=O)c3cc(Cl)c(F)cc3F)cc2)nc2[nH]nc(N)c12 [Example 501] | 40 | 450 | – | – |
| Cc1ccc(C#N)c(S(=O)(=O)Nc2ccc(-c3ncc4c(C)n[nH]c4n3)cc2)c1 [Example 93] | 2400 | 3300 | – | – |
| Nc1n[nH]c2nc(-c3ccc(NS(=O)(=O)c4cc(Cl)sc4Cl)cc3)ncc12 [Example 463] | 2.5 | 120 | – | – |
| Cc1ccc(F)c(S(=O)(=O)Nc2ccc(-c3nc(OC4CCC(O)CC4)c4c(C)n[nH]c4n3)cc2)c1 (centres unmarked) [Example 101] | 2.1 | 430 | – | – |
| O=S(=O)(Nc1ccc(-c2nc(OCC3CNCCO3)c3cn[nH]c3n2)cc1)c1cc(F)ccc1F (centres unmarked) [Example 311] | 240 | 92 | – | – |
| COc1nc(-c2ccc(NS(=O)(=O)c3cc(Cl)ccc3Cl)cc2)nc2[nH]ncc12 [Example 139] | 82 | 5500 | – | – |
| Nc1n[nH]c2cc(-c3ccc(NS(=O)(=O)c4cc(Cl)ccc4F)cc3)ncc12 [Example 559] | 19 | 390 | – | – |
| COc1ccc(F)c(S(=O)(=O)Nc2ccc(-c3nc(OCC(F)(F)F)c4c(N)n[nH]c4n3)cc2)c1 [Example 197] | 3 | 65 | – | – |
| COc1nc(-c2ccc(NS(=O)(=O)c3cc(C)ccc3C#N)cc2)nc2[nH]ncc12 [Example 135] | 12 | 1900 | – | – |
| O=S(=O)(Nc1ccc(-c2nc(O[C@H]3CC[C@@H](O)CC3)c3cn[nH]c3n2)cc1)c1cc(Cl)ccc1Cl [Example 80] | < 1.5 | 450 | – | – |
| Cc1ccc(C#N)cc1S(=O)(=O)Nc1ccc(-c2nc(C)c3c(N)n[nH]c3n2)cc1 [Example 473] | 32 | 8200 | – | – |
| COCCc1nc(-c2ccc(NS(=O)(=O)c3cc(OC)ccc3Cl)cc2)nc2[nH]nc(N)c12 [Example 502] | 18 | 420 | – | – |
| CC(C)Oc1nc(-c2ccc(NS(=O)(=O)c3cc(Cl)ccc3Cl)cc2)nc2[nH]nc(N)c12 [Example 335] | 8.3 | 350 | – | – |
| Cc1nc(-c2ccc(NS(=O)(=O)c3cccc(F)c3C#N)cc2)nc2[nH]nc(N)c12 [Example 474] | 12 | 11000 | – | – |
| Cc1n[nH]c2nc(-c3ccc(NS(=O)(=O)c4cc(Cl)ccc4Cl)cc3)ncc12 [Example 1, 2,5-Dichloro-N-[4-(3-methyl-1H-pyrazolo[3,4-d]pyrimidin-6-yl)-phenyl]-benzenesulfonamide] | – | – | < 1.2 | 830 |

| Structure (SMILES) | IC50 [1, 3] [nM] | IC50 [2] [nM] | IC50 ([1]; read-out: IC50 values for inhibition of SGK-1 enzymatic activity, peptide substrate 1 μM, ATP 10 μM, 60 min at 37° C.) [nM] | IC50 ([2]; Homo sapiens) [nM] |
| --- | --- | --- | --- | --- |
| Cc1ccc(F)c(S(=O)(=O)Nc2ccc(-c3nc(OC4C[C@@H](O)C[C@@H](O)C4)c4cn[nH]c4n3)cc2)c1 (some centres unmarked) [Example 119] | < 1.5 | 11000 | – | – |
| Cc1ccc(C#N)c(S(=O)(=O)Nc2ccc(-c3nc(OC4CNC4)c4cn[nH]c4n3)cc2)c1 [Example 188] | 3.4 | 900 | – | – |
| O=S(=O)(Nc1ccc(-c2nc(O[C@@H]3CCC[C@H]3O)c3cn[nH]c3n2)cc1)c1cc(Cl)ccc1Cl [Example 88] | 6.7 | 4500 | – | – |
| O=S(=O)(Nc1ccc(-c2nc(O[C@@H]3CCCC[C@@H]3O)c3cn[nH]c3n2)cc1)c1cc(Cl)ccc1F (racemic) [Example 81] | 11 | 1700 | – | – |
| Cc1ccc(C#N)c(S(=O)(=O)Nc2ccc(-c3nc(OCC4CNCCO4)c4c(C)n[nH]c4n3)cc2)c1 (centres unmarked) [Example 293] | 3.2 | 630 | – | – |
| Cc1ccc(F)c(S(=O)(=O)Nc2ccc(-c3ncc4c(N)n[nH]c4n3)cc2)c1 [Example 455] | < 1.5 | 390 | – | – |
| Cc1ccc(C#N)c(S(=O)(=O)Nc2ccc(-c3nc(OC4CCN(CCF)CC4)c4c(C)n[nH]c4n3)cc2)c1 [Example 343] | 3.8 | 68 | – | – |
| COc1ccc(Cl)c(S(=O)(=O)Nc2ccc(-c3nc(OCCCN)c4cn[nH]c4n3)cc2)c1 [Example 203] | < 1.5 | 160 | – | – |
| CC(C)(O)CCCOc1nc(-c2ccc(NS(=O)(=O)c3cc(Cl)ccc3F)cc2)nc2[nH]ncc12 [Example 86] | 11 | 1800 | – | – |
| O=S(=O)(Nc1ccc(-c2nc(O[C@H]3CCCC(O)C3)c3cn[nH]c3n2)cc1)c1cc(Cl)ccc1Cl (some centres unmarked) [Example 85] | 4.1 | 1500 | – | – |
| Cc1n[nH]c2nc(-c3ccc(NS(=O)(=O)c4cc(Cl)ccc4Cl)cc3)nc(OCCCN)c12 [Example 210] | < 1.5 | 98 | – | – |
| Cc1n[nH]c2nc(-c3ccc(NS(=O)(=O)c4cc(Cl)ccc4Cl)cc3)nc(OCC3CNCCO3)c12 (centres unmarked) [Example 313] | 2 | 47 | – | – |
| COc1ccc(Cl)c(S(=O)(=O)Nc2ccc(-c3nc(OCC(F)(F)F)c4c(N)n[nH]c4n3)cc2)c1 [Example 194] | 2.3 | 100 | – | – |
| Cc1ccc(C#N)c(S(=O)(=O)Nc2ccc(-c3nc(NC4CCC(O)CC4)c4c(C)n[nH]c4n3)cc2)c1 (centres unmarked) [Example 98] | 1.7 | 1700 | – | – |
| NCCCOc1nc(-c2ccc(NS(=O)(=O)c3cc(F)ccc3F)cc2)nc2[nH]ncc12 [Example 199] | 26 | 640 | – | – |
| N#Cc1ccc(Cl)cc1S(=O)(=O)Nc1ccc(-c2nc(OCC(F)(F)F)c3c(N)n[nH]c3n2)cc1 [Example 196] | 4.6 | 330 | – | – |
| N#Cc1c(Cl)cccc1S(=O)(=O)Nc1ccc(-c2ncc3c(N)n[nH]c3n2)cc1 [Example 456] | 6.2 | 8900 | – | – |
| CC(C)(CO)COc1nc(-c2ccc(NS(=O)(=O)c3cc(Cl)ccc3F)cc2)nc2[nH]ncc12 [Example 57] | 8.3 | 500 | – | – |
| O=S(=O)(Nc1ccc(-c2nc(Oc3cccnc3)c3cn[nH]c3n2)cc1)c1cc(Cl)ccc1F [Example 26] | < 1.2 | 2600 | – | – |
| Cc1ccc(C#N)c(S(=O)(=O)Nc2ccc(-c3nc(OCC4CNCCO4)c4cn[nH]c4n3)cc2)c1 (centres unmarked) [Example 315] | 7.9 | 600 | – | – |

| Structure (SMILES) | IC50 [1, 3] [nM] | IC50 [2] [nM] | IC50 ([1]; read-out: IC50 values for inhibition of SGK-1 enzymatic activity, peptide substrate 1 μM, ATP 10 μM, 60 min at 37° C.) [nM] | IC50 ([2]; Homo sapiens) [nM] |
| --- | --- | --- | --- | --- |
| Cc1nc(-c2ccc(NS(=O)(=O)c3cc(Cl)ccc3C#N)cc2)nc2[nH]nc(N3CCCC4(COC4)C3)c12 [Example 499] | 8.9 | 8800 | – | – |
| Cc1nc(-c2ccc(NS(=O)(=O)C3=C(Cl)SCC(Cl)=C3)cc2)nc2[nH]nc(N)c12 [Example 175] | 19 | 520 | – | – |
| COc1ccc(C#N)c(S(=O)(=O)Nc2ccc(-c3ncc4c(N)n[nH]c4n3)cc2)c1 [Example 522] | 2.4 | 290 | – | – |
| O=S(=O)(Nc1ccc(-c2nc(O[C@@H]3CCC[C@H]3O)c3cn[nH]c3n2)cc1)c1cc(Cl)ccc1F [Example 87] | 6.8 | 4100 | – | – |
| O=S(=O)(Nc1ccc(-c2nc(OC3CNC3)c3cn[nH]c3n2)cc1)c1cc(Cl)ccc1Cl [Example 190] | 4.7 | 120 | – | – |
| COc1ccc(Cl)c(S(=O)(=O)Nc2ccc(-c3nc(OC)c4cn[nH]c4n3)cc2)c1 [Example 143] | 10 | 100 | – | – |
| Cc1nc(-c2ccc(NS(=O)(=O)c3cc(Cl)ccc3Cl)cc2)nc2[nH]ncc12 [Example 76] | 5.7 | 3000 | – | – |
| O=S(=O)(Nc1ccc(-c2nc(O[C@H]3CCCC(O)C3)c3cn[nH]c3n2)cc1)c1cc(Cl)ccc1F (some centres unmarked) [Example 84] | 3.2 | 1200 | – | – |
| COc1ccc(F)c(S(=O)(=O)Nc2ccc(-c3nc(OC4CCNCC4F)c4c(C)n[nH]c4n3)cc2)c1 (centres unmarked) [Example 302] | 1.9 | 86 | – | – |
| Cc1n[nH]c2nc(-c3ccc(NS(=O)(=O)c4cc(Cl)ccc4Cl)cc3)nc(OC3CCNCC3F)c12 (centres unmarked) [Example 303] | 2.2 | 57 | – | – |
| COc1ccc(F)c(S(=O)(=O)Nc2ccc(-c3nc(OCC4CNCCO4)c4c(C)n[nH]c4n3)cc2)c1 (centres unmarked) [Example 295] | 2.6 | 25 | – | – |
| COc1ccc(F)c(S(=O)(=O)Nc2ccc(-c3nc(OCC4CNCCO4)c4cn[nH]c4n3)cc2)c1 (centres unmarked) [Example 309] | 2.8 | 160 | – | – |
| COc1ccc(F)c(S(=O)(=O)Nc2ccc(-c3nc(OC4CCC(O)CC4)c4c(C)n[nH]c4n3)cc2)c1 (centres unmarked) [Example 129] | < 1.5 | 170 | – | – |
| Cc1n[nH]c2nc(-c3ccc(NS(=O)(=O)c4ccccc4F)cc3)nc(OC3CCCNC3)c12 (centres unmarked) [Example 323] | 12 | 100 | – | – |
| COc1ccc(F)c(S(=O)(=O)Nc2ccc(-c3nc(OC4CNC4)c4cn[nH]c4n3)cc2)c1 [Example 192] | 2.8 | 140 | – | – |
| CC(C)COc1nc(-c2ccc(NS(=O)(=O)c3ccccc3Cl)cc2)nc2[nH]nc(N)c12 [Example 316] | 480 | 270 | – | – |
| O=S(=O)(Nc1ccc(-c2nc(OCC3CNCCO3)c3cn[nH]c3n2)cc1)c1cc(Cl)ccc1F (centres unmarked) [Example 305] | 10 | 89 | – | – |
| Cc1n[nH]c2nc(-c3ccc(NS(=O)(=O)c4cc(F)ccc4F)cc3)nc(OC3CCC(O)CC3)c12 (centres unmarked) [Example 217] | 9.1 | 190 | – | – |
